Measured values as given in patent publication US5508437A, “Analogs of tyrosine sulfate or tyrosine phosphate containing peptides” (Hoffmann-La Roche Inc., priority 1993, dated 1996).
Where two headings read alike, the source gives them in different places. Starred links: 1 amine or outer side, 2 acyl side, 3 side chain; linkers in the order of their positions; H or OH if unused. Positions of bridges follow the written chain, without caps; N, C: chain ends. Non-standard residues stand in square brackets, D forms with d. Residues, ends and D or L forms follow the SMILES beside them. ξ: configuration not given here. *: point of attachment. Phe(4-tetrazol-5-yl) = N[C@@H](Cc1ccc(-c2nnn[nH]2)cc1)C(=O)O; Propanoyl(3-(4-HOOCCH2-Ph)) = O=C(O)Cc1ccc(CCC(=O)*)cc1; X15 = O=C([C@@H](Cc1ccc(-c2nn[nH]n2)cc1)N[*:1])[*:2]; X13 = O=C(O)C(F)(F)c1ccc(CC(N[*:1])C(=O)[*:2])cc1; X3 = CCOC(=O)Cc1ccc(C[C@@H](N[*:1])C(=O)[*:2])cc1; X5 = CCOC(=O)Cc1ccc(C[C@H](N[*:1])C(=O)[*:2])cc1; X7 = O=C(C(Cc1ccc(-c2nn[nH]n2)cc1)N[*:1])[*:2]; X8 = O=C(C(Cc1ccc(Cc2nn[nH]n2)cc1)N[*:1])[*:2]; X12 = O=C(O)Cc1cccc(CC(N[*:1])C(=O)[*:2])c1; X1 = O=C(O)Cc1ccc(CC(N[*:1])C(=O)[*:2])cc1; X14 = O=C(O)c1cccc(CC(N[*:1])C(=O)[*:2])c1; ξPhe(4-COOH) = NC(Cc1ccc(C(=O)O)cc1)C(=O)O; X16 = O=C(CCc1ccc(-c2nnn[nH]2)cc1)*; NMeF = CN[C@@H](Cc1ccccc1)C(=O)O; Nle = CCCC[C@H](N)C(=O)O

How the values were obtained:
[1] = target: T1, Bovine Striatum (3H-CCK-8-(SO3 H) receptor binding) (Bos taurus, UniProt P79266); assay: In vitro receptor binding assay, 3H-CCK-8-(SO3H), bovine striatum homogenate
T1 construct: tissue homogenate (striatum approximately 0.26 mg protein in 2 mL final volume); from tissue; host or cells: bovine striatum membrane homogenate
T1 sequence (P79266 1-454): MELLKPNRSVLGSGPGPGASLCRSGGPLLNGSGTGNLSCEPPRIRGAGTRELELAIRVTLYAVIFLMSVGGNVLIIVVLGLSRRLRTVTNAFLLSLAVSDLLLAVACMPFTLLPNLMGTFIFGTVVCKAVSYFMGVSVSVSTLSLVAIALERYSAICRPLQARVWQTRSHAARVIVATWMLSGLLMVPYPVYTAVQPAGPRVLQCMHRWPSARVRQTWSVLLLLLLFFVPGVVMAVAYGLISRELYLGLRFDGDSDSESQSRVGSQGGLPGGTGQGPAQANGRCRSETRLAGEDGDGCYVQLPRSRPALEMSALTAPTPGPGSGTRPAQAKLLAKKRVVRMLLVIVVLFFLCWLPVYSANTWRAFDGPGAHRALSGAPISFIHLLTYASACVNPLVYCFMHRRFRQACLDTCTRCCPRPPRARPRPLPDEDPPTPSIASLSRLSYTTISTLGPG
Description: (§1) Frozen bovine striatum (approx. 5 g) or fresh rat pancreas (approx. 5 g) cleaned of fat and extraneous tissue were homogenized in HEPES buffer #1 (10 mM HEPES+130 mM NaCl+5 mM MgCl2, pH 7.4) using 35 parts buffer per 1 part tissue on a wet weight/volume basis (approx. 175 mL). The tissue was homogenized 2×for approx. 15 sec. at 0° C. using a Polytron homogenizer at a setting of 6. The tissue was isolated by centrifugation at 48,000× g for 10 min at 0° C. The resulting tissue pellet was resuspended in HEPES buffer #2 (10 mM HEPES+130 mM NaCl+5 mM MgCl2 +1 mg/L phenylmethanasulfonyl fluoride (PMSF)+200 mg/L Bacitracin): 1 part striatal tissue (original wet weight) per 80 parts buffer and 1 part pancreas tissue (original wet weight) per 500 to 1000 parts buffer.
(§2) Incubation was initiated by combining various concentrations of native CCK-8 or peptides of the invention with ^3 H-CCK-8-(SO3 H) (final conc.=0.15 nM) and tissue homogenate (striatum approximately 0.26 mg protein in 2 mL final volume; pancreas approximately 0.100 mg protein in 1 mL final volume). Samples were incubated for 30 min at 25° C. and the incubation terminated by pouring the mixture onto a pre-wetted Whatman GF/B filter on a Sandbeck Vacuum Filtration Manifold. The incubation tubes were washed with 2×3 mL of ice-cold HEPES Buffer #2 and the wash filtered through the GF/B filter. The filter was air dried for 10 min and then placed in a scintillation vial with 12 mL of DuPont/NEN Aquasol scintillation cocktail. The vials were shaken overnight and then counted using a liquid scintillation spectrometer. Non-specific binding was determined in the presence of 1 micromolar native CCK-8 and subtracted from all samples to determine specific binding. The concentration of peptide necessary to inhibit 50% of total specific H-CCK-8-(SO3 H) binding (IC50 value) was determined by log-probit analysis.

[2] = target: T2, rat pancreas (3H-CCK-8-(SO3 H) receptor binding) (Rattus norvegicus, UniProt P30551); assay: In vitro receptor binding assay, 3H-CCK-8-(SO3H), rat pancreas homogenate
T2 construct: pancreas approximately 0.100 mg protein in 1 mL final volume; from tissue; host or cells: rat pancreas membrane homogenate
T2 sequence (P30551 1-444): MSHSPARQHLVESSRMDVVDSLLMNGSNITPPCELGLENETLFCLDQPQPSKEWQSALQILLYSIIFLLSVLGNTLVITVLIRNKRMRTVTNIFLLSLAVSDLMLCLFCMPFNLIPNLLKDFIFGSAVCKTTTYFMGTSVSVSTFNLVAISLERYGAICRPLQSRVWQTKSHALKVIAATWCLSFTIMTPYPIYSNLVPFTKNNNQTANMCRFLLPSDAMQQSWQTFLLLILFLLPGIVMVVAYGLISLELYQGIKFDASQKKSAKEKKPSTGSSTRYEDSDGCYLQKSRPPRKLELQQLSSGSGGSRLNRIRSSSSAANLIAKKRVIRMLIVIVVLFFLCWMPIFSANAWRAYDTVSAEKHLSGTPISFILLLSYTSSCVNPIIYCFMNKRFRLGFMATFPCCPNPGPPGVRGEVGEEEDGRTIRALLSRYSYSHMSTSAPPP
Description: as §1, §2

[3] = 3H-CCK-8-(SO3H) 0.15 nM, 30 min at 25° C., bovine striatum homogenate, read-out: Bovine Striatum IC50 (concentration to inhibit 50% of specific 3H-CCK-8-(SO3H) binding)
[4] = 3H-CCK-8-(SO3H) 0.15 nM, 30 min at 25° C., rat pancreas homogenate, read-out: Rate Pancreas IC50 (concentration to inhibit 50% of specific 3H-CCK-8-(SO3H) binding)

SMILES	IC50 [1, 3]	IC50 [2, 4]	IC50 [1]	IC50 [2]
CSCC[C@H](NC(=O)[C@H](Cc1ccc(OS(=O)(=O)O)cc1)NC(=O)[C@@H](N)CC(=O)O)C(=O)NCC(=O)N[C@@H](Cc1c[nH]c2ccccc12)C(=O)N[C@@H](CCSC)C(=O)N[C@@H](CC(=O)O)C(=O)N[C@@H](Cc1ccccc1)C(N)=O [CCK-8, AspTyr(SO3 H)MetGlyTrpMetAspPheNH2, reference compound]	1 to 3.2 nM	1 to 4.6 nM		
CSCC[C@H](NC(=O)C(Cc1cccc(C(=O)O)c1)NC(C)=O)C(=O)NCC(=O)N[C@@H](Cc1c[nH]c2ccccc12)C(=O)N[C@@H](CCSC)C(=O)N[C@@H](CC(=O)O)C(=O)N[C@@H](Cc1ccccc1)C(N)=O (stereo partly drawn) [Example 42, Ac-(D,L)Phe(3-COOH)-Met-Gly-Trp-Met-Asp-Phe-NH2] (Ac-[X14]MGWMDF-NH2)	32 nM	128 nM		
CSCC[C@H](NC(=O)C(Cc1ccc(C(=O)O)cc1)NC(C)=O)C(=O)NCC(=O)N[C@@H](Cc1c[nH]c2ccccc12)C(=O)N[C@@H](CCSC)C(=O)N[C@@H](CC(=O)O)C(=O)N[C@@H](Cc1ccccc1)C(N)=O (stereo partly drawn) [Example 43, AC-(D,L)Phe(4-COOH)-Met-Gly-Trp-Met-Asp-Phe-NH2] (Ac-[ξPhe(4-COOH)]MGWMDF-NH2)	34 nM	62 nM		
CSCC[C@H](NC(=O)C(Cc1ccc(CC(=O)O)cc1)NC(C)=O)C(=O)NCC(=O)N[C@@H](Cc1c[nH]c2ccccc12)C(=O)N[C@@H](CCSC)C(=O)N[C@@H](CC(=O)O)C(=O)N[C@@H](Cc1ccccc1)C(N)=O (stereo partly drawn) [Example 46, Ac-(D,L)Phe(4-CH2 COOH)-Met-Gly-Trp-Met-Asp-Phe-NH2] (Ac-[X1]MGWMDF-NH2)	47 nM	3.6 nM		
CCOC(=O)Cc1ccc(C[C@@H](NC(C)=O)C(=O)N[C@@H](CCSC)C(=O)NCC(=O)N[C@@H](Cc2c[nH]c3ccccc23)C(=O)N[C@@H](CCSC)C(=O)N[C@@H](CC(=O)OCC)C(=O)N[C@@H](Cc2ccccc2)C(N)=O)cc1 [Example 49, Ac-(D)Phe(4-CH2 COOC2 H5)-Met-Gly-Trp-Met-Asp(COOC2H5)-Phe-NH2] (Ac-[X3]MGWMD(OEt)F-NH2)	10000 nM	1000 nM		
CCOC(=O)Cc1ccc(C[C@H](NC(C)=O)C(=O)N[C@@H](CCSC)C(=O)NCC(=O)N[C@@H](Cc2c[nH]c3ccccc23)C(=O)N[C@@H](CCSC)C(=O)N[C@@H](CC(=O)OCC)C(=O)N[C@@H](Cc2ccccc2)C(N)=O)cc1 [Example 50, Ac-Phe(4-CH2 COOC2 H5)-Met-Gly-Trp-Met-Asp-(COOC2 H5)-Phe-NH2] (Ac-[X5]MGWMD(OEt)F-NH2)	10000 nM	3600 nM		
CSCC[C@H](NC(=O)C(Cc1ccc(C(F)(F)C(=O)O)cc1)NC(C)=O)C(=O)NCC(=O)N[C@@H](Cc1c[nH]c2ccccc12)C(=O)N[C@@H](CCSC)C(=O)N[C@@H](CC(=O)O)C(=O)N[C@@H](Cc1ccccc1)C(N)=O (stereo partly drawn) [Example 52, Ac-(D,L)Phe(4-CF2 COOH)-Met-Gly-Trp-Met-Asp-Phe-NH2] (Ac-[X13]MGWMDF-NH2)			66 nM	81 nM
CSCC[C@H](NC(=O)C(Cc1ccc(-c2nn[nH]n2)cc1)NC(C)=O)C(=O)NCC(=O)N[C@@H](Cc1c[nH]c2ccccc12)C(=O)N[C@@H](CCSC)C(=O)N[C@@H](CC(=O)O)C(=O)N[C@@H](Cc1ccccc1)C(N)=O (stereo partly drawn) [Example 53, Ac-(D,L)Phe(4-tetrazole)-Met-Gly-Trp-Met-Asp-Phe-NH2] (Ac-[X7]MGWMDF-NH2)	1.6 nM	22 nM		
CSCC[C@H](NC(=O)[C@H](Cc1c[nH]c2ccccc12)NC(=O)CNC(=O)[C@H](CCSC)NC(=O)[C@@H](Cc1ccc(-c2nn[nH]n2)cc1)NC(C)=O)C(=O)N[C@@H](CC(=O)O)C(=O)N[C@@H](Cc1ccccc1)C(N)=O [Example 54, Ac-(D)Phe(4-tetrazole)-Met-Gly-Trp-Met-Asp-Phe-NH2] (Ac-[X15]MGWMDF-NH2)	50 nM			
CSCC[C@H](NC(=O)[C@H](Cc1ccc(-c2nnn[nH]2)cc1)NC(C)=O)C(=O)NCC(=O)N[C@@H](Cc1c[nH]c2ccccc12)C(=O)N[C@@H](CCSC)C(=O)N[C@@H](CC(=O)O)C(=O)N[C@@H](Cc1ccccc1)C(N)=O [Example 55, AcPhe(4-tetrazole)MetGlyTrpMetAspPheNH2] (Ac-[Phe(4-tetrazol-5-yl)]MGWMDF-NH2)	0.51 nM			
CSCC[C@@H]1NC(=O)[C@H](Cc2c[nH]c3ccccc23)NC(=O)CNC(=O)[C@@H](NC(=O)C(Cc2ccc(CC(=O)O)cc2)NC(C)=O)CCCCNC(=O)C[C@@H](C(=O)N(C)[C@@H](Cc2ccccc2)C(N)=O)NC1=O (stereo partly drawn) [Example 56, Ac-(D,L)Phe(4-CH2 COOH)-Lys-Gly-Trp-Met-Asp-N-methyl-Phe-NH2] (Ac-[X1]KGWMD[NMeF]-NH2; lactam 2-6)	10000 nM	4650 nM		
CSCC[C@H](NC(=O)C(Cc1cccc(CC(=O)O)c1)NC(C)=O)C(=O)NCC(=O)N[C@@H](Cc1c[nH]c2ccccc12)C(=O)N[C@@H](CCSC)C(=O)N[C@@H](CC(=O)O)C(=O)N[C@@H](Cc1ccccc1)C(N)=O (stereo partly drawn) [Example 58, Ac-(D,L)Phe-(3-CH2 COOH)-Met-Gly-Trp-Met-Asp-Phe-NH2] (Ac-[X12]MGWMDF-NH2)	53 nM	23 nM		
CSCC[C@H](NC(=O)CCc1ccc(CC(=O)O)cc1)C(=O)NCC(=O)N[C@@H](Cc1c[nH]c2ccccc12)C(=O)N[C@@H](CCSC)C(=O)N[C@@H](CC(=O)O)C(=O)N[C@@H](Cc1ccccc1)C(N)=O [Example 59, Desamino Phe(4-CH2 -COOH)-Met-Gly-Trp-Met-Asp-Phe-NH2] ({Propanoyl(3-(4-HOOCCH2-Ph))}-MGWMDF-NH2)		57 nM		
CSCC[C@H](NC(=O)C(Cc1ccc(Cc2nn[nH]n2)cc1)NC(C)=O)C(=O)NCC(=O)N[C@@H](Cc1c[nH]c2ccccc12)C(=O)N[C@@H](CCSC)C(=O)N[C@@H](CC(=O)O)C(=O)N[C@@H](Cc1ccccc1)C(N)=O (stereo partly drawn) [Example 60, Ac-(D,L)Phe(4-CH2 tetrazole)-Met-Gly-Trp-Met-Asp-Phe-NH2] (Ac-[X8]MGWMDF-NH2)	340 nM	730 nM		
CCCC[C@H](NC(=O)C(Cc1ccc(Cc2nn[nH]n2)cc1)NC(C)=O)C(=O)NCC(=O)N[C@@H](Cc1c[nH]c2ccccc12)C(=O)N[C@@H](CCCC)C(=O)N[C@@H](CC(=O)O)C(=O)N(C)[C@@H](Cc1ccccc1)C(N)=O (stereo partly drawn) [Example 63, Ac-(D,L)Phe(4-CH2 -tetrazole)-Nle-Gly-Trp-Nle-Asp-N-methyl-Phe-NH2] (Ac-[X8][Nle]GW[Nle]D[NMeF]-NH2)	260 nM	640 nM		
CSCC[C@H](NC(=O)CCc1ccc(-c2nnn[nH]2)cc1)C(=O)NCC(=O)N[C@@H](Cc1c[nH]c2ccccc12)C(=O)N[C@@H](CCSC)C(=O)N[C@@H](CC(=O)O)C(=O)N[C@@H](Cc1ccccc1)C(N)=O [Example 67, Desamino-Phe(4-tetrazole)-Met-Gly-Trp-Met-Asp-Phe-NH2] (X16-MGWMDF-NH2)	5.1 nM			
